Patent US5475032A, “2,4-disulfonyl phenyl butyl nitrone, its salts, and their use as pharmaceuticals” (Oklahoma Medical Research Foundation, priority 1995, dated 1995)

Columns and labels:
[1] = system: neuron loss following brain ischemia and reperfusion injury; experiment: neuronal density after 5 min bilateral carotid occlusion, compound i.p. 30 min before ischemia (Example 3); assay type: in vivo, gerbil; conditions: 30 min before ischemia
Protocol: In the experiments a test compound was administered to groups of six gerbils i.p. as a single dose 30 min before 5 min bilateral carotid occlusion. The density of neuronal nuclei in a 100 micron was measured. Two controls were present--controls which received no test compound and controls which received no test compound and no brain ischemia.

[2] = system: neuron loss following brain ischemia and reperfusion injury; experiment: neuronal density, post-ischemia treatment, compound i.p. 30 min after reperfusion following 5 min ischemia (Example 4); assay type: in vivo, gerbil
[3] = adriamycin acute lethality and its prevention by pretreatment, C57BL/6J mice (Example 13); assay type: in vivo; conditions: mouse, in vivo, ip
From the text: All injections were intraperitoneal.

[4] = adriamycin acute lethality and its prevention by pretreatment, DBA/2J mice (Example 13); conditions: mouse, in vivo, ip
Protocol: All injections were intraperitoneal. The acute lethality of adriamycin ranged from 10 to 30 mg/kg.

[5] = system: neuronal cultures; conditions: Dichlorofluorescein and increased intracellular free calcium Fura-2; cited from earlier work
[6] = system: rat brains; conditions: infused into rat brains; cited from earlier work
[7] = system: embryonic hippocampal neuronal and neuronal/glial cultures; conditions: extended period of co-incubation; cited from earlier work
[8] = system: neurotoxicity; conditions: cited from earlier work
[9] = system: creatine kinase (CK); experiment: inactivation of creatine kinase by βAP fragments in cytosolic fractions of neocortex (Example 11); assay type: biochemical, gerbil; conditions: 10 min incubation prior to assay
Protocol: (§1) Cytosolic fractions from gerbil neocortex were prepared and enzyme activities determined. Samples were incubated in the presence of different concentrations of the peptide for 10 min prior to assay. Solid symbols represent the effects of the naturally occurring 25-35 fragment. […] Each point is the mean (+/- s.e.) of 5 observations. βAP derived and other cellular sources of free radicals are an important determinant of the initiation and progression of AD.

[10] = system: glutamine synthetase (GS); experiment: inactivation of glutamine synthetase by βAP fragments in cytosolic fractions of neocortex (Example 11); assay type: biochemical, gerbil; conditions: 10 min incubation prior to assay
Protocol: as §1

Compound | Neuronal nuclei/100 micron field ([1]; 3.2 mg/kg i.p.) | Neuronal nuclei/100 micron field ([1]; 10 mg/kg i.p.) | Neuronal nuclei/100 micron field ([1]; 32 mg/kg i.p.) | Neuronal nuclei/100 micron field ([1]; 50 mg/kg i.p.) | Neuronal nuclei/100 micron field ([1]; 100 mg/kg i.p.) | Neuronal nuclei/100 micron field ([1]; 320 mg/kg i.p.) | Neuronal nuclei/100 micron field ([1]; 1000 mg/kg i.p.) | Neuronal nuclei/100 micron field ([2]; 50 mg/kg i.p.) | Neuronal nuclei/100 micron field ([2]; 100 mg/kg i.p.) | Neuronal nuclei/100 micron field ([2]; 320 mg/kg i.p.) | other results
CC(C)(C)[N+]([O-])=Cc1ccccc1S(=O)(=O)O [Compound 2-sulfo, N-tert-butyl-α-(2-sulfophenyl) nitrone] | 0.73 Neuronal nuclei/100 micron field | 0.68 Neuronal nuclei/100 micron field | 0.73 Neuronal nuclei/100 micron field | 1.01 Neuronal nuclei/100 micron field | 0.93 Neuronal nuclei/100 micron field | 1.11 Neuronal nuclei/100 micron field | 0.98 Neuronal nuclei/100 micron field | 0.68 Neuronal nuclei/100 micron field | 0.78 Neuronal nuclei/100 micron field | 0.81 Neuronal nuclei/100 micron field | 
CC(C)(C)[N+]([O-])=Cc1cccc(S(=O)(=O)O)c1 [Compound 3-sulfo] | 0.35 Neuronal nuclei/100 micron field | 0.81 Neuronal nuclei/100 micron field | 1.63 Neuronal nuclei/100 micron field | 1.63 Neuronal nuclei/100 micron field | 1.93 Neuronal nuclei/100 micron field | 1.78 Neuronal nuclei/100 micron field | 1.58 Neuronal nuclei/100 micron field | 0.73 Neuronal nuclei/100 micron field | 1.09 Neuronal nuclei/100 micron field | 0.93 Neuronal nuclei/100 micron field | 
COc1cccc2c1C(=O)c1c(O)c3c(c(O)c1C2=O)C[C@@](O)(C(=O)CO)C[C@@H]3O[C@H]1C[C@H](N)[C@H](O)[C@H](C)O1 [adriamycin] |  |  |  |  |  |  |  |  |  |  | LD50 [3]: 25 mg/kg; LD50 [4]: 25 mg/kg
βAP 1-40: beta amyloid peptide 1-40 |  |  |  |  |  |  |  |  |  |  | oxidative stress [5]: results in oxidative stress; lesions in rat brains [6]: lesions are produced; cytotoxicity [7]: produces cytotoxicity
βAP (25-35): proposed breakdown fragment of βAP; naturally occurring 25-35 fragment (GSNKGAIIGLM; Amyloid-beta protein 42; UniProt P05067 696-706, looked up, fragment) |  |  |  |  |  |  |  |  |  |  | neurotoxicity [8]: neurotoxic; inactivation of creatine kinase [9]: dose-related inactivation; inactivation of glutamine synthetase [10]: dose-related inactivation
